Results published in patent US20090142330A1, “Use of inactive-plasmin to treat chronic inflammatory disease and tumors” (The Government of the United States of America as …, priority 2007, published 2009).

Tests used:
Type in all cases: cell-based, human
MMP-1 mRNA in monocytes = experiment: MMP-1 mRNA in monocytes, semiquantitative RT-PCR; conditions: FIG. 2C
Protocol: Plasmin activity assay. Plasmin activity was determined with the SPECTROZYME PL kit (American Diagnostica Inc., Stamford, Conn.) which utilizes the chromogenic substrate H-D-norleucyl-hexahydrotyrosol-lysine-para-nitroanilide diacetate. For detection of cell-associated plasmin activity, monocytes were cultured at 1×10^6/well in Hanks Balanced Solution containing calcium and magnesium (Hyclone, Logan, Utah) with the plasmin substrate. Kinetic absorbance readings were measured at 405 nm. RT-PCR. Total cellular RNA was extracted with the RNeasy Mini Kit (QIAGEN® Inc., Valencia, Calif.) 8 hours after stimulation of monocytes with LPS. Transcript levels of MMP-1 were determined using semiquantitative reverse transcriptase-polymerase chain reaction (RT-PCR) with GADPH as an internal control. […] The amplified DNA was separated by 1.7% agarose gel electrophoresis, stained with SYTO 60 red fluorescent nucleic acid stain (Molecular Probes®, Eugene, Oreg.), and the intensity of the stained bands was analyzed with an infrared imaging system. […] FITC-conjugated BSA, plasmin (2.5 μg in 10 μl) or anti-human antibodies (1-2.5 μg/10 μl) then were added, respectively, incubated for 30 min and washed and analyzed by the FACSCalibur system (Becton Dickinson Biosciences, Franklin Lakes, N.J.). […] Flow cytometry results were analyzed by CELLQuest software (Becton Dickinson Biosciences, Franklin Lakes, N.J.). […]

PGE2 = PGE2 in monocyte culture supernatants, ELISA; conditions: LPS-stimulated monocytes, 24 hours; FIG. 4B
Protocol: FIGS. 4A-4C illustrate that stimulation of MMP-1 by HMW-uPA and plasmin is mediated in part by PGE2. FIG. 4A is a digital image depicting cyclooxygenase-2 (COX-2) protein levels detected in monocyte cultures determined by Western blot analysis in the presence of HMW-uPA (30 nM) or plasmin (360 nM) in the absence or presence of LPS (25 ng/ml). β-actin protein levels were detected to serve as an indicator for equal sample loading. FIG. 4B is a bar graph illustrating media levels of PGE2 measured by ELISA at 24 hours. FIG. 4C is a digital image illustrating MMP-1 protein levels detected by Western blot analysis in monocyte cultures following incubation with indomethacin for 30 minutes prior to the addition of LPS, HMW-uPA, plasmin or PGE2 (1 μM).

ERK1/2 = experiment: Phosphorylation of ERK1/2 in monocytes, Western blot; conditions: LPS-stimulated monocytes, 1 hour; FIG. 5B
Protocol: For detection of the levels of activated ERK1/2 and p38 MAPKs monocytes were cultured in DMEM at 5×10^6/ml in suspension. Ten to 60 minutes after the addition of reagents, the cells were pelleted and lysed with SDS loading buffer (prepared as described above). The supernatants were loaded onto 12% Tris-glycine gels. The blots were then incubated overnight with mouse anti-human antibodies against the phosphorylated forms of ERK1/2 and p38 and with rabbit anti-human antibodies against total ERK1/2 and p38 as a measure of equal loading of the gels.
Western blots for MMP-1, MAPKs and COX-2 were incubated overnight with primary antibodies, washed and analyzed by the addition of Alexa Fluor 680 goat anti-rabbit or Alexa Fluor 750 goat anti-mouse antibodies (Molecular Probes® Inc., Eugene, Oreg.) and the infrared fluorescence detected with the Odyssey infrared imaging system (LI-COR, Lincoln, Nebr.). Densitometry analysis of the bands on the Western blots was determined with the LI-COR software analysis program or the ImageQuant software analysis program (Amersham Biosciences, Piscataway, N.J.).

With plasmin the “MMP-1 mRNA level” value (MMP-1 mRNA in monocytes; LPS-stimulated monocytes, 8 hours) was “dose-dependent increase”, the “induction of MMP-1 mRNA” value (MMP-1 mRNA in monocytes; control (unstimulated) monocytes) was “did not induce MMP-1” and the “PGE2 levels in monocyte culture supernatants” value (PGE2) was “increased PGE2 levels”. The “phosphorylation of ERK1/2” value (ERK1/2) was “induced increases”.
